Laboratory results taken from patent US4610976A, “Porcine GRF” (The Salk Institute for Biological Studies, priority 1983, dated 1986).

Tested on: cells of rat pituitary glands
Test: in vitro growth hormone release assay in rat pituitary cell monolayer cultures (ir GH by radioimmunoassay)
Assay type: cell-based
Conditions: equimolar concentrations, side-by-side with synthetic hGRF(1-44)-NH2; incubation 3 to 4 hours; ir GH in culture medium
Description: To determine the effectiveness of the peptide to promote the release of growth hormone, in vitro assays are carried out using synthetic hGRF(1-44)-NH2 in side-by-side comparison with equimolar concentrations of the extracted and purified pGRF(1-44) of Example II and of a GRF Reference Standard having a known effectiveness to promote the release of growth hormone from pituitary cells. The GRF Reference standard is described and defined in Brazeau, et al., Endocrinology, Vol. 110, A538(1982) and is an amount of a preparation of rat hypothalamic origin that produces a half-maximal response in terms of GH release in a pituitary cell monolayer bioassay. Cultures are used which include cells of rat pituitary glands removed some four to five days previously. Both cultures of a defined standard medium and cultures which are considered optimal for the secretion of growth hormone are used for the comparative testing, in the general manner described in Brazeau, et al. Regulatory Peptides, 1, 255, 1981. Incubation with the substance to be tested is carried out for 3 to 4 hours, and aliquots of the culture medium are removed and processed to measure their contents in inmunoreactive GH(ir GH) by a well-characterized radioimmunoassay.

Tyr-Ala-Asp-Ala-Ile-Phe-Thr-Asn-Ser-Tyr-Arg-Lys-Val-Leu-Gly-Gln-Leu-Ser-Ala-Arg-Lys-Leu-Leu-Gln-Asp-Ile-Met-Ser-Arg-Gln-Gln-Gly-Glu-Arg-Asn-Gln-Glu-Gln-Gly-Ala-Arg-Val-Arg-Leu (YADAIFTNSYRKVLGQLSARKLLQDIMSRQQGERNQEQGARVRL; printed: Tyr-Ala-Asp-Ala-Ile-Phe-Thr-Asn-Ser-Tyr-Arg-Lys-Val-Leu-Gly-Gln-Leu-Ser-Ala-Arg-Lys-Leu-Leu-Gln-Asp-Ile-Met-Ser-Arg-Gln-Gln-Gly-Glu-Arg-Asn-Gln-Glu-Gln-Gly-Ala-Arg-Val-Arg-Leu) [pGRF(1-44), 44-residue polypeptide isolated from purified extracts of porcine hypothalami]
intrinsic biological activity to promote the release of growth hormone, compared with synthetic hGRF(1-44)-NH2: full intrinsic biological activity of the synthetic peptide
potency to promote the release of growth hormone, compared with synthetic hGRF(1-44)-NH2: close to the same potency
